Assay results from patent publication US5239083A, “Indole derivatives which inhibit steroid 5α reductase” (Kyowa Hakko Kogyo Co., Ltd., priority 1991, dated 1993).

test system: male dd mice; test: Acute Toxicity Test (oral, mice); type: in vivo; conditions: oral 300 mg/kg, mortality observed seven days after administration
Description: Test compounds (300 mg/kg) were orally administered to male dd mice weighing 20±1 g (each group consists of three animals). Minimum lethal dose (MLD) was determined by observing mortality seven days after the administration.

Compound | Acute toxicity (MLD), minimum lethal dose
4-{2-[3-[1-(1-butylpentyl)indol-5-yl]isocrotonoyl amino]phenoxy}butyric acid [Compound 20] | > 300 mg/kg
C/C(=C\C(=O)Nc1ccccc1OCCCC(=O)O)c1ccc2c(ccn2C(c2ccccc2)c2ccccc2)c1 [Compound 2, 4-{2-[3-(1-benzhydrylindol-5-yl)isocrotonoylamino]phenoxy}butyric acid] | > 300 mg/kg
CCCCCn1ccc2cc(/C(C)=C/C(=O)Nc3ccccc3OCCCC(=O)O)ccc21 [Compound 6, 4-{2-[3-(1-pentylindol-5-yl)isocrotonoylamino]phenoxy}butyric acid] | > 300 mg/kg
CCCCCCn1ccc2cc(/C(C)=C/C(=O)Nc3ccccc3OCCCC(=O)O)ccc21 [Compound 7, 4-{2-[3-(1-hexylindol-5-yl)isocrotonoylamino]phenoxy}butyric acid] | > 300 mg/kg
CCC(C)n1ccc2cc(/C(C)=C/C(=O)Nc3ccccc3OCCCC(=O)O)ccc21 (stereo not shown) [Compound 15, 4-{2-[3-[1-(1-methylpropyl)indol-5-yl]isocrotonoylamino]phenoxy}butyric acid] | > 300 mg/kg
CCCC(C)n1ccc2cc(/C(C)=C/C(=O)Nc3ccccc3OCCCC(=O)O)ccc21 (stereo not shown) [Compound 16, 4-{2-[3-[1-(1-methylbutyl)indol-5-yl]isocrotonoylamino]phenoxy}butyric acid] | > 300 mg/kg
CCCCC(C)n1ccc2cc(/C(C)=C/C(=O)Nc3ccccc3OCCCC(=O)O)ccc21 (stereo not shown) [Compound 17, 4-{2-[3-[1-(1-methylpentyl)indol-5-yl]isocrotonoylamino]phenoxy}butyrate] | > 300 mg/kg
CCCCC(CC)n1ccc2cc(/C(C)=C/C(=O)Nc3ccccc3OCCCC(=O)O)ccc21 (stereo not shown) [Compound 18, 4-{2-[3-[1-(1-ethylpentyl)indol-5-yl]isocrotonoylamino]phenoxy}butyric acid] | > 300 mg/kg
CCCC(c1ccccc1)n1ccc2cc(/C(C)=C/C(=O)Nc3ccccc3OCCCC(=O)O)ccc21 (stereo not drawn) [Compound 41, 4-{2-[3-[1-(α-propylbenzyl)indol-5-yl]isocrotonoylamino]phenoxy}butyric acid] | > 300 mg/kg

test system: steroid 5α-reductase; test: Inhibition effects on steroid 5α-reductase activity (rat prostate enzyme, [4-14C]-testosterone); type: biochemical, male rats; conditions: pH 6.5, 37° C., 20 minutes
Description: The measurements of inhibition effects of test compounds on steroid 5α-reductase activity were performed according to the method described by Liang et al. [J. Biol. Chem., 259, 734 (1984)] as follows.
The prostates from male rats were homogenated in three tissue volumes of 20 mM sodium phosphate buffer (pH 6.5; containing 0.32M sucrose and 1 mM dithiothreitol). The homogenate was centrifuged at 140,000 X g for one hour. The precipitate was suspended in the buffer described above and the suspension was centrifuged at 140,000 X g for one hour. The precipitate was resuspended in the buffer described above and the solution (30-50 mg protein/ml) was used as enzyme in following assay.
[4-^14 C]-testosterone (1.5 nmol), NADPH (75 nmol), the enzyme (1 mg protein) and test compound in a total volume of 0.5 ml of 40 mM sodium phosphate buffer [pH 6.5, containing 1 mM dithiothreitol] was incubated at 37° C. After 20 minutes the enzyme activity was stopped by the addition of 2 ml of ethyl acetate. The mixture was then centrifuged at 1,000 g, for 5 minutes. The ethyl acetate layer was transferred to another tube and evaporated to dryness. The steroids were taken up in 50 μl of ethyl acetate and separated by thin layer chromatography (TLC) on silica gel in a developing solvent (ethyl acetate: cyclohexane=1:1). The radioactivity of testosterone and dihydrotestosterone on the TLC plate was measured by a TLC scanner.

inhibition rate (%), 10^-7 M | Compound
87% | COc1ccc(C(c2ccc(OC)cc2)n2ccc3cc(/C(C)=C/C(=O)Nc4ccccc4OCCCC(=O)O)ccc32)cc1 [Compound 60, 4-{2-[3-[1-(4,4-dimethoxybenzhydryl)indol-5-yl]isocrotonoylamino]phenoxy}butyric acid]
72% | C/C(=C\C(=O)Nc1ccccc1OCCCC(=O)O)c1ccc2c(ccn2C(c2ccccc2)c2ccccn2)c1 (stereo not shown) [Compound 63, 4-{2-[3-[1-[phenyl-(2-pyridyl)methyl]indol-5-yl]isocrotonoylamino]phenoxy}butyric acid]
98% | CCCC(CCC)n1ccc2cc(/C(C)=C/C(=O)Nc3ccc(F)cc3OCCCC(=O)O)ccc21 [Compound 67]
92% | CCCC(CC)n1ccc2cc(/C(C)=C/C(=O)Nc3ccccc3OCCCC(=O)O)ccc21 (stereo not shown) [Compound 68, 4-{2-[3-[1-(1-ethylbutyl)indol-5-yl]isocrotonoylamino]phenoxy}butyric acid]
70% | C/C(=C\C(=O)Nc1ccccc1OCCCC(=O)O)c1ccc2c(ccn2C(C)CCCC(C)C)c1 (stereo not shown) [Compound 76, 4-{2-[3-[1-(1,5-dimethylhexyl)indol-5-6l]isocrotonoylamino]phenoxy}butyric acid]
97% | C/C(=C\C(=O)Nc1ccccc1OCCCC(=O)O)c1ccc2c(ccn2C(CC(C)C)c2ccccc2)c1 (stereo not drawn) [Compound 77, 4-{2-[3-[1-[α-(2-methyl)-propylbenzyl]indol-5-yl]isocrotonoylamino]phenoxy}butyric acid]
94% | CCCC(c1ccccc1C)n1ccc2cc(/C(C)=C/C(=O)Nc3ccccc3OCCCC(=O)O)ccc21 (stereo not drawn) [Compound 78, 4-{2-[3-[1-(2-methyl-α-propylbenzyl)indol-5-yl]isocrotonoylamino]phenoxy}butyric acid]
90% | CCCCC(c1ccccc1C)n1ccc2cc(/C(C)=C/C(=O)Nc3ccccc3OCCCC(=O)O)ccc21 (stereo not drawn) [Compound 79, 4-{2-[3-[1-(α-butyl-2-methylbenzyl)indol-5-yl]isocrotonoylamino]phenoxy}butyric acid]
90% | C/C(=C\C(=O)Nc1ccccc1OCCCC(=O)O)c1ccc2c(ccn2C(c2ccccc2)c2ccc(C(F)(F)F)cc2)c1 (stereo not shown) [Compound 83]
66% | C/C(=C\C(=O)Nc1ccccc1OCCCC(=O)O)c1ccc2c(ccn2C(c2ccccc2)c2cccnc2)c1 (stereo not shown) [Compound 84]
95% | CCCC(CCC)n1ccc2cc(/C(=C/C(=O)Nc3ccccc3OCCCC(=O)O)CC)ccc21 [Compound 88, 4-{2-[3-[1-(1-propylbutyl)indol-5-yl]-cis-2-pentenoylamino]phenoxy}butyric acid]
95% | CCCC(CCC)n1ccc2cc(/C(=C/C(=O)Nc3ccc(F)cc3OCCCC(=O)O)CC)ccc21 [Compound 89, 4-{2-[3-[1-(1-propylbutyl)indol-5-yl]-cis-2-pentenoylamino]-5-fluorophenoxy}butyric acid]
79% | CCCCC(CCC)n1ccc2cc(/C(=C/C(=O)Nc3ccccc3OCCCC(=O)O)CC)ccc21 (stereo not drawn) [Compound 90, 4-{2-[3-[1-(1-propylpentyl)indol-5-yl]-cis-2-pentenoylamino]phenoxy}butyricacid]
98% | CCCCC(CCC)n1ccc2cc(/C(=C/C(=O)Nc3ccc(F)cc3OCCCC(=O)O)CC)ccc21 (stereo not drawn) [Compound 91, 4-{2-[3-[1-(1-propylpentyl)indol-5-yl]-cis-2-pentenoylamino]-5-fluorophenoxy}butyric acid]
91% | CC/C(=C\C(=O)Nc1ccccc1OCCCC(=O)O)c1ccc2c(ccn2C(CC(C)C)CC(C)C)c1 [Compound 92, 4-{2-[3-[1-[3-methyl-1-(2-methylpropyl)butyl]indol-5-yl]-cis-2-pentenoylamino]phenoxy}butyric acid]
94% | CC/C(=C\C(=O)Nc1ccccc1OCCCC(=O)O)c1ccc2c(ccn2C(c2ccccc2)c2ccccc2)c1 [Compound 93, 4-{2-[3-(1-benzhydrylindol-5-yl)-cis-2-pentenoylamino]phenoxy}butyric acid]
97% | CC/C(=C\C(=O)Nc1ccccc1OCCCC(=O)O)c1ccc2c(ccn2C(c2ccc(F)cc2)c2ccc(F)cc2)c1 [Compound 94, 4-{2-[3-[1-(4,4'-difluorobenzhydryl)indol-5-yl]-cis-2-pentenoylaminmo]phenoxy}butyric acid]

More lines, now with the values behind:

Compound | inhibition rate (%), 10^-7 M
4-{2-[3-[1-(1-butylpentyl)indol-5-yl]isocrotonoyl amino]phenoxy}butyric acid [Compound 20] | 79%
4-{2-[3-[1-(1-propylbutyl)indol-5-yl]isocrotonoyl amino]phenoxy}butyric acid [Compound 19] | 94%
C/C(=C\C(=O)Nc1ccccc1OCCCC(=O)O)c1ccc2c(ccn2C(c2ccccc2)c2ccccc2)c1 [Compound 2, 4-{2-[3-(1-benzhydrylindol-5-yl)isocrotonoylamino]phenoxy}butyric acid] | 95%
CCCCCn1ccc2cc(/C(C)=C/C(=O)Nc3ccccc3OCCCC(=O)O)ccc21 [Compound 6, 4-{2-[3-(1-pentylindol-5-yl)isocrotonoylamino]phenoxy}butyric acid] | 81%
CCCC(C)n1ccc2cc(/C(C)=C/C(=O)Nc3ccccc3OCCCC(=O)O)ccc21 (stereo not shown) [Compound 16, 4-{2-[3-[1-(1-methylbutyl)indol-5-yl]isocrotonoylamino]phenoxy}butyric acid] | 88%
CCCCC(CC)n1ccc2cc(/C(C)=C/C(=O)Nc3ccccc3OCCCC(=O)O)ccc21 (stereo not shown) [Compound 18, 4-{2-[3-[1-(1-ethylpentyl)indol-5-yl]isocrotonoylamino]phenoxy}butyric acid] | 90%
CCCC(C)C(C)n1ccc2cc(/C(C)=C/C(=O)Nc3ccccc3OCCCC(=O)O)ccc21 (stereo not shown) [Compound 22, 4-{2-[3-[1-(1,2-dimethylpentyl)indol-5-yl]isocrotonoylamino]phenoxy}butyric acid] | 70%
C/C(=C\C(=O)Nc1ccccc1OCCCC(=O)O)c1ccc2c(ccn2C(C)c2ccccc2)c1 (stereo not drawn) [Compound 38, 4-{2-[3-[1-(α-methylbenzyl)indol-5-yl]isocrotonoylamino]phenoxy}butyric acid] | 78%
CCC(c1ccccc1)n1ccc2cc(/C(C)=C/C(=O)Nc3ccccc3OCCCC(=O)O)ccc21 (stereo not drawn) [Compound 40, 4-{2-[3-[1-(α-ethylbenzyl)indol-5-yl]isocrotonoylamino]phenoxy}butyric acid] | 78%
CCCC(c1ccccc1)n1ccc2cc(/C(C)=C/C(=O)Nc3ccccc3OCCCC(=O)O)ccc21 (stereo not drawn) [Compound 41, 4-{2-[3-[1-(α-propylbenzyl)indol-5-yl]isocrotonoylamino]phenoxy}butyric acid] | 90%
C/C(=C\C(=O)Nc1ccc(F)cc1OCCCC(=O)O)c1ccc2c(ccn2C(c2ccccc2)c2ccccc2)c1 [Compound 48, 4-{2-[3-(1-benzhydrylindol-5-yl)isocrotonoylamino]-5-fluorophenoxy}butyric acid] | 93%
C/C(=C\C(=O)Nc1ccccc1OCCCC(=O)O)c1ccc2c(ccn2C(c2ccccc2)c2ccc(F)cc2)c1 (stereo not shown) [Compound 57, 4-{2-[3-[1-(4-fluorobenzhydryl)indol-5-yl]isocrotonoylamino]phenoxy}butyricacid] | 92%
C/C(=C\C(=O)Nc1ccccc1OCCCC(=O)O)c1ccc2c(ccn2C(c2ccccc2)c2ccccc2F)c1 (stereo not shown) [Compound 58, 4-{2-[3-[1-(2-fluorobenzhydryl)indol-5-yl]isocrotonoylamino]phenoxy}butyricacid] | 93%
C/C(=C\C(=O)Nc1ccccc1OCCCC(=O)O)c1ccc2c(ccn2C(c2ccc(F)cc2)c2ccc(F)cc2)c1 [Compound 59, 4-{2-[3-[1-(4,4'-difluorobenzhydryl)indol-5-yl]isocrotonoylamino]phenoxy}butyric acid] | 92%
